In PMC8751641, “Synthesis and Antiviral Activities of Neoechinulin B and Its Derivatives” (Journal of Natural Products, 2021):

How the values were obtained:
[1] = system: HCV JFH-1; assay: Anti-HCV assay (infectivity of HCV in the medium, focus-forming assay); format: cell-based; conditions: Hepatitis C virus, Huh-7.5.1; Huh7.5.1 cells, HCV JFH-1 MOI 0.15, 72 h; mean ± SD, triplicate
Procedure: (§1) The anti-HCV assay was performed as described previously.[3] In brief, Huh7.5.1 cells were treated with HCV JFH-1 at a multiplicity of infection (MOI) of 0.15 for 4 h. […] The infectivity of HCV in the medium was quantified by a focus-forming assay with Huh7.5.1 cells. Cell viability at 72 h post-treatment was simultaneously measured by the MTT assay.[16] Cell growth inhibition was evaluated as the ratio of the absorbance of the sample to that of the control.

[2] = MTT assay, cytotoxicity against host Huh7.5.1 cells; format: cell-based; conditions: human
Procedure: as §1

[3] = Cell viability of VeroE6/TMPRSS2 cells (DAPI staining, cell count); format: cell-based; conditions: chlorocebus sabaeus, 24 h, DAPI staining, surviving cell number, read-out: Cytotoxicity CC50
Procedure: (§2) The number of cells was quantified based on the measurement of the DNA content.[20] Cell growth inhibition was evaluated as the ratio of the absorbance of the sample to that of the control. […] The cells were washed with PBS and fixed in 4% paraformaldehyde. The resultant cells were stained with 0.02% 4′,6-diamidino-2-phenylindole (DAPI) and washed with PBS four times. The number of surviving cells was quantified with a high-content imaging analyzer, ImageXpress Micro Confocal (Molecular Device, San Jose, CA, USA).

[4] = system: SARS-CoV-2 Wk-521 strain; assay: Anti-SARS-CoV-2 assay (extracellular viral RNA, VeroE6/TMPRSS2 cells); conditions: for IC50: read-out: Anti-SARS-CoV-2 activity IC50, MOI 0.003, 24 h, extracellular viral RNA, mean ± SD, triplicate; for IC90: read-out: Anti-SARS-CoV-2 activity IC90, MOI 0.003, 24 h, extracellular viral RNA, mean ± SD, triplicate
[5] = system: VeroE6/TMPRSS2 cells; assay: Cell viability of VeroE6/TMPRSS2 cells (DAPI staining, cell count); format: cell-based
Procedure: as §2

[6] = system: HCV JFH-1; parameters: method as in PMID 27489280; conditions: cited from earlier work
[7] = system: poliovirus; conditions: cited from earlier work
[8] = system: influenza A virus subtype H1N1; parameters: method as in PMID 25681711; conditions: by targeting viral hemagglutinin; cited from earlier work
[9] = system: recombinant LXRα; parameters: method as in PMID 27489280; conditions: cited from earlier work
[10] = system: recombinant LXRβ; parameters: method as in PMID 27489280; conditions: cited from earlier work
[11] = system: LXR; assay: LXRE-driven luciferase reporter assay in Huh-7 cells; conditions: 48 h

| Structure (SMILES) | IC50 [1] [µM] | IC90 [1] [µM] | CC50 at 72 h [2] [µM] | CC50 at 24 h [3] [µM] | melting point [°C] | Anti-SARS-CoV-2 activity (in words) [4] | IC50 [4] [µM] | IC90 [4] [µM] | Toxicity toward the host cells (in words) [5] | Antiviral effects against HCV (earlier report) [6] | Poliovirus RNA replication in DMVs [7] | Entry of influenza A virus subtype H1N1 [8] | Interaction with LXRα (SPR) [9] | Interaction with LXRβ (SPR) [10] | LXRE-driven luciferase activity (agonist) [11] |
| --- | --- | --- | --- | --- | --- | --- | --- | --- | --- | --- | --- | --- | --- | --- | --- |
| C=c1[nH]c(=O)/c(=C/c2ccc(C)cc2)[nH]c1=O [1h] | 2.7 ± 1.4 | > 20 | > 20 | 63.1 ± 17.9 | 237 to 239 | exhibited anti-SARS-CoV-2 activity | 6 ± 2.4 | 16.3 ± 6.2 |  |  |  |  |  |  |  |
| C=c1[nH]c(=O)/c(=C/c2ccsc2)[nH]c1=O [1e] | 1.4 ± 0.48 | > 20 | > 20 | 42.2 ± 7.9 | 242 to 243 |  |  |  | showed toxicity toward the host cells |  |  |  |  |  |  |
| C=CC(C)(C)c1[nH]c2ccccc2c1C[C@@H]1NC(=O)[C@H](C)NC1=O [compound 8, preechinulin] | > 20 | > 20 | > 20 | > 100 |  |  | > 40 | > 40 |  |  |  |  |  |  |  |
| C=CC(C)(C)c1[nH]c2ccccc2c1/C=C1\NC(=O)C(C)(OC)NC1=O (stereo not shown) [compound 6, variecolorin H] | > 20 | > 20 | > 20 | > 100 |  |  | > 40 | > 40 |  |  |  |  |  |  |  |
| C=c1[nH]c(=O)/c(=C/c2ccc(C(F)(F)F)cc2)[nH]c1=O [1n] | 1.6 ± 0.32 | 9.7 ± 1.06 | > 20 | 30.1 ± 7.3 | 244 to 245 |  |  |  | showed toxicity toward the host cells |  |  |  |  |  |  |
| C=c1[nH]c(=O)/c(=C/c2ccc(-c3ccccc3)cc2)[nH]c1=O [1o] | 4.9 ± 0.66 | > 20 | > 20 | > 100 | 229 to 230 | exhibited anti-SARS-CoV-2 activity | 20.8 ± 8 | > 40 |  |  |  |  |  |  |  |
| C=c1[nH]c(=O)/c(=C/c2ccoc2)[nH]c1=O [1d] | 1.4 ± 0.34 | > 20 | > 20 | > 80 | 242 to 243 | exhibited anti-SARS-CoV-2 activity | 9.3 ± 6.2 | 21.2 ± 9 |  |  |  |  |  |  |  |
| C=CC(C)(C)c1[nH]c2ccccc2c1/C=c1\[nH]c(=O)c(=C)[nH]c1=O [1a, neoechinulin B] | 4.7 ± 1.4 | > 20 | > 20 | > 70 |  |  | 32.9 ± 13.2 | 45.6 ± 7.4 |  | exhibited antiviral effects against hepatitis C virus (HCV) | reduced the RNA replication of poliovirus | inhibit the entry of influenza A virus subtype H1N1 | interacts with recombinant LXRα and LXRβ | interacts with recombinant LXRα and LXRβ |  |
| C=c1[nH]c(=O)/c(=C/c2ccc(OC)c(OC)c2)[nH]c1=O [1j] | 2 ± 0.068 | > 20 | > 20 | 62.8 ± 17.4 | 237 to 238 | exhibited anti-SARS-CoV-2 activity | 10.3 ± 3.7 | 20.1 ± 8.5 |  |  |  |  |  |  |  |
| C=c1[nH]c(=O)/c(=C/c2ccc(C(=O)OC)cc2)[nH]c1=O [1l] | 1.2 ± 0.16 | 6.5 ± 1.84 | > 20 | > 50 | 248 to 249 | exhibited anti-SARS-CoV-2 activity | 8.4 ± 2.1 | 14.1 ± 1.8 |  |  |  |  |  |  |  |
| C=c1[nH]c(=O)/c(=C/c2ccccc2)[nH]c1=O [1c] | 0.0059 ± 0.0042 | > 20 | > 20 | 40.1 ± 10.5 | 242 to 243 | exhibited anti-SARS-CoV-2 activity | 13.6 ± 3.2 | 20.3 ± 3.2 |  |  |  |  |  |  |  |
| C=c1[nH]c(=O)/c(=C/c2ccc(C(C)(C)C)cc2)[nH]c1=O [1g] | 1.1 ± 0.34 | > 20 | > 20 | > 70 | 212 to 213 | did not show anti-SARS-CoV-2 activity |  | > 40 |  |  |  |  |  |  |  |
| C=c1[nH]c(=O)/c(=C/c2c[nH]c3ccccc23)[nH]c1=O [1b, (Z)-3-[(1H-Indol-3-yl)methylene]-6-methylenepiperazine-2,5-dione] | 2.2 ± 0.64 | > 20 | > 20 | > 100 | 285 to 286 | did not show anti-SARS-CoV-2 activity | > 40 | > 40 |  |  |  |  |  |  |  |
| O=S(=O)(c1ccccc1)N(CC(F)(F)F)c1ccc(C(O)(C(F)(F)F)C(F)(F)F)cc1 [T0901317] |  |  |  |  |  |  |  |  |  |  |  |  |  |  | increased the LXRE-driven luciferase activity |
| C=c1[nH]c(=O)/c(=C/c2ccc(N(C)C)cc2)[nH]c1=O [1m] | 1.2 ± 0.54 | > 20 | > 20 | 28.3 ± 6.2 | 225 to 227 |  |  |  | showed toxicity toward the host cells |  |  |  |  |  |  |
| C=c1[nH]c(=O)/c(=C/c2cc(OC)c(OC)c(OC)c2)[nH]c1=O [1k] | 1.1 ± 0.6 | > 20 | > 20 | 78.8 ± 4.5 | 219 to 221 | did not show anti-SARS-CoV-2 activity |  | > 40 |  |  |  |  |  |  |  |
| C=c1[nH]c(=O)/c(=C/c2cc(C(C)(C)C)cc(C(C)(C)C)c2)[nH]c1=O [1f] | 0.015 ± 0.019 | > 20 | > 20 | > 100 | 204 to 205 | did not show anti-SARS-CoV-2 activity |  | > 40 |  |  |  |  |  |  |  |
| C=c1[nH]c(=O)/c(=C/c2ccc(OC)cc2)[nH]c1=O [1i] | 1.3 ± 0.42 | > 20 | > 20 | 47.2 ± 0.6 | 229 to 231 |  |  |  | showed toxicity toward the host cells |  |  |  |  |  |  |
| C=c1[nH]c(=O)/c(=C/c2ccc3ccccc3c2)[nH]c1=O [1p] | 0.26 ± 0.11 | 1.9 ± 0.65 | > 20 | 40.7 ± 20.1 | 216 to 217 | did not show anti-SARS-CoV-2 activity | > 40 | > 40 |  |  |  |  |  |  |  |
